Tests used:
Type in all cases: in vivo, Syrian hamsters
[1] = tested on: hamsters fed with high cholesterol diet; experiment: Animal experiments on lowering blood lipids: total cholesterol and triglyceride in the feces; details: Positive control (P), 124 mg/kg oral gavage, 8 weeks
Description: Male Syrian hamsters aged 6-7 weeks were tested for evaluating the effects of lowering blood lipid profile. Animals were divided into 6 groups, 8 hamsters in each group with a total of 48 hamsters. The experiment was conducted for 8 weeks, and the dosing method was oral gavage, and the animals of experimental groups were fed with the astaxanthin compound composition prepared according to the present invention. The dosage used was calculated according to the dosage for adult human. […] Based on this dosage, the 1×, 2× and 3× dosages were respectively defined for the following testing. The animals were fed with 1× (the converted dosage for hamster is 30.83 mg/kg), 2× (the converted dosage for hamster is 61.67 mg/kg) and 3× (the converted dosage for hamster is 92.50 mg/kg) dosages. At the same time, the clinically used anti-hyperlipidemic drug, Probucol, was used as comparison for evaluating the anti-hyperlipidemic effect. [table] Biostatistical analysis method: the results of the experiment were statistically tested based on one-way ANOVA by using SPSS 10.1 system. Then, the difference among the groups was tested by Duncan's Multiple Range Test. When the p value is smaller than 0.05 (P<0.05), it indicates statistically significant difference. […]

[2] = tested on: hamsters fed with high cholesterol diet; experiment: Animal experiments on lowering blood lipids: serum lipid profile
Description: Male Syrian hamsters aged 6-7 weeks were tested for evaluating the effects of lowering blood lipid profile. Animals were divided into 6 groups, 8 hamsters in each group with a total of 48 hamsters. The experiment was conducted for 8 weeks, and the dosing method was oral gavage, and the animals of experimental groups were fed with the astaxanthin compound composition prepared according to the present invention. The dosage used was calculated according to the dosage for adult human. […] Based on this dosage, the 1×, 2× and 3× dosages were respectively defined for the following testing. The animals were fed with 1× (the converted dosage for hamster is 30.83 mg/kg), 2× (the converted dosage for hamster is 61.67 mg/kg) and 3× (the converted dosage for hamster is 92.50 mg/kg) dosages. At the same time, the clinically used anti-hyperlipidemic drug, Probucol, was used as comparison for evaluating the anti-hyperlipidemic effect. [table] Biostatistical analysis method: the results of the experiment were statistically tested based on one-way ANOVA by using SPSS 10.1 system. Then, the difference among the groups was tested by Duncan's Multiple Range Test. When the p value is smaller than 0.05 (P<0.05), it indicates statistically significant difference. The experimental animals were sacrificed to have blood drawn and the results of total cholesterol (TC) and triglyceride (TG) were shown in Table 2. […] Please continue to refer to Table 2 for the effects of astaxanthin compound composition on high-density lipoprotein cholesterol (HDL-C), low-density lipoprotein cholesterol (LDL-C) in hamsters fed with high cholesterol diet.

[3] = tested on: hamsters fed with high cholesterol diet; experiment: Animal experiments on lowering blood lipids: total cholesterol and triglyceride in the liver
Description: Male Syrian hamsters aged 6-7 weeks were tested for evaluating the effects of lowering blood lipid profile. Animals were divided into 6 groups, 8 hamsters in each group with a total of 48 hamsters. The experiment was conducted for 8 weeks, and the dosing method was oral gavage, and the animals of experimental groups were fed with the astaxanthin compound composition prepared according to the present invention. The dosage used was calculated according to the dosage for adult human. […] Based on this dosage, the 1×, 2× and 3× dosages were respectively defined for the following testing. The animals were fed with 1× (the converted dosage for hamster is 30.83 mg/kg), 2× (the converted dosage for hamster is 61.67 mg/kg) and 3× (the converted dosage for hamster is 92.50 mg/kg) dosages. At the same time, the clinically used anti-hyperlipidemic drug, Probucol, was used as comparison for evaluating the anti-hyperlipidemic effect. [table] Biostatistical analysis method: the results of the experiment were statistically tested based on one-way ANOVA by using SPSS 10.1 system. Then, the difference among the groups was tested by Duncan's Multiple Range Test. When the p value is smaller than 0.05 (P<0.05), it indicates statistically significant difference. When the concentration of total cholesterol and triglyceride in the liver is too high, the risk of developing fatty liver may increase. According to the present Experimental Example, the concentration changes in total cholesterol and triglyceride in the liver and feces of the tested animals are shown in Table 3.

[4] = Positive control (P), 124 mg/kg oral gavage, 8 weeks, high cholesterol diet

CC(C)(Sc1cc(C(C)(C)C)c(O)c(C(C)(C)C)c1)Sc1cc(C(C)(C)C)c(O)c(C(C)(C)C)c1 [Probucol]
feces TC [1]: 6.7 ± 0.9 mg/g
feces TG [1]: 15.8 ± 2.8 mg/g
HDL-C in serum [2, 4]: 83 ± 11 mg/dL
HDL-C/TC in serum [2, 4]: 0.707 ± 0.066
LDL-C in serum [2, 4]: 31.8 ± 3.9 mg/dL
LDL-C/HDL-C in serum [2, 4]: 0.392 ± 0.110
LDL-C/TC in serum [2, 4]: 0.203 ± 0.032
TC (total cholesterol) in serum [2, 4]: 157 ± 11 mg/dL
TG (triglyceride) in serum [2, 4]: 152 ± 14 mg/dL
total cholesterol in blood compared with vehicle control group ([2]; positive control group, 124 mg/kg, p<0.05): significantly lower
liver TC [3, 4]: 3.80 ± 0.26 mg/g
liver TG [3, 4]: 13.7 ± 1.5 mg/g
total cholesterol concentration in the liver compared with vehicle control group ([3]; positive control (P) group, 124 mg/kg, p<0.05): significantly lower

From US10973779B2, “Astaxanthin compound composition and the method thereof” (Bioptik Technology, Inc., priority 2019, dated 2021)
